The record followed here is patent publication US10106505B2, “Composition and methods for modulating a kinase cascade” (Athenex, Inc., priority 2012, dated 2018).

Structures are written as SMILES. “Also recorded” adds a separate entry of the source. Read-outs that look alike come from different tables or passages of the source.

One data set deals with aggressive brain tumors. Put plainly: Mice with aggressive brain tumors (mouse model of malignant glioma). Type of data set: in vivo. On the procedure:
(§1) Compound 1 is a synthetic, orally bioavailable, novel small molecule microtubule polymerization inhibitor with very high CNS penetration. The efficacy of compound 1 as a novel anti-cancer agent is tested directly using mouse model of malignant glioma. Compound 1 is an orally administered tubulin polymerization inhibitor that binds to a novel site on heterodimeric tubulin, and to a novel conformation of the dimer. Compound 1 can inhibit Src signaling in tumors. Compound 1 has been evaluated in various brain tumor cell lines. […] When administered orally to mice at a dose of 10 mg/kg, the ratio of drug levels in the brain compared to plasma levels was 0.76, indicating excellent blood brain barrier penetration.
(§2) Compound 1 was evaluated in various human and mouse brain tumor cells derived from glioblastoma multiforme, astrocytoma and medulloblastoma. See, e.g., US2011/0281872. […] When administered to mice compound 1 penetrated the brain by 76%, thereby successfully addressing the first major challenge in brain cancer drug discovery. Drugs which are used to treat brain tumors often penetrate only 20% or less.

The next data set relates to GL261 glioma. Put plainly: Orthotropic GL261 glioma model in immune-competent, syngeneic C57BL/6 mice. In kind it is in vivo. On the procedure:
(§3) Compound 1 was also evaluated in the orthotropic GL261 glioma model in immune-competent, syngeneic C57BL/6 mice. Mice implanted intracerebrally with 1×1^05 GL261 cells treated with vehicle alone (saline) have a median survival time (MeST) of 21 days (range 18-28). Mice treated by oral compound 1 (30 mg/kg, b.i.d.) have a MeST of 30.5 days ranging 23-32 days. In contrast, when compound 1 is given orally at (30 mg/kg, s.i.d.) the MeST increases to over 120 days, with more than 60% of the treatment group still alive 12 months later (p<0.0001). […] Further experiments were performed using a SCID version of C57BL/6 mice (B6.CB17-Prkd^cscid/SzJ), a mouse model of B6 background, but is immune-compromised.
When given as a single dose per day (s.i.d.) compound 1 led to complete tumor regression in up to 60% of treated mice without further progression. […] This magnitude of anti-tumor effect was not observed in SCID models leading to the possibility that compound 1 may be involved in an anti-tumor immune response.
When given single dose per day (s.i.d.) compound 1 led to complete tumor regression in up to 60% of treated mice without further progression.

Data set [1] relates to c-Src (527F, constitutively active and transforming) transformed NIH3T3 cells. Briefly: Src substrate phosphorylation in c-Src transformed NIH3T3 cells. Type of data set: cell-based. Particulars: c-Src (527F) transformed NIH3T3 cells; in good correlation with growth inhibitory effects. The text has this: (§4) Compounds of the invention may be Src signaling inhibitors that bind in the Src peptide substrate site. The activity of various compounds of the invention has been studied in c-Src (527F, constitutively active and transforming) transformed NIH3T3 cells and in human colon cancer cells (HT29).

Data set [2] deals with GL261 intracerebral tumors. Put plainly: GL261 intracerebral tumors in immune-compromised SCID C57BL/6 mice. Type of data set: in vivo, SCID version of C57BL/6 mice (B6.CB17-Prkd^cscid/SzJ). On the procedure: as §3
In a further data set the test system is survivin. Put plainly: Additional molecular studies on survivin.
Data set [3] concerns human colon cancer cells (HT29). Briefly: Src substrate phosphorylation in HT29 cells. Type of data set: cell-based. The following applies: in good correlation with growth inhibitory effects.
Text: as §4

For data set [4], the system named is various brain tumor cell lines (glioblastoma multiforme, astrocytoma, medulloblastoma). Briefly: Proliferation of brain tumor cell lines. Type of data set: cell-based, human and mouse. On the procedure: as §1, §2
A short description of data set [5]: Brain penetration after oral administration to mice. Type of data set: in vivo. Particulars: mouse, 10 mg/kg. On the procedure:
as §1, §2

[6] abbreviates: mice with aggressive brain tumors.
[7] abbreviates: oral 30 mg/kg, b.i.d., C57BL/6, intracerebral GL261.
Where [8] appears, read: immune-compromised SCID mice bearing GL261 intracerebral tumors.

On to `Cn1nnc2c(C(N)=O)ncn2c1=O` [Temodar, Temozolamide, reference compound], for which the “rate of tumor growth” value with aggressive brain tumors (setting [6]) was “only slows the growth rate of the tumors”. Also, the complete tumor regression entry with aggressive brain tumors (mice with aggressive brain tumors, comparison drug) is reported as “does not cause complete tumor regression”.

Consider `O=C(Cc1ccc(-c2ccc(N3CCOCC3)cc2)cn1)NCc1cccc(F)c1` [compound 1, N-(3-fluorobenzyl)-2-(5-(4-morpholinophenyl)pyridin-2-yl)acetamide], for which, in the data set with GL261 glioma ("cured" / long term survivor immune-competent C57BL/6 mice), the “second GL261 tumor implant challenge” value was “rejected a second GL261 tumor implant challenge; also recorded: rejection of a second tumor”. For the same molecule, the “median survival time (MeST)” value in the data set with GL261 glioma (setting [7]) is on record as 30.5 days; in the data set on GL261 glioma (oral 30 mg/kg, s.i.d., C57BL/6, intracerebral GL261), “over 120 days”; in data set [2] (setting [8]), 40 days. Moreover, the results for the survival time range (in the data set on GL261 glioma (setting [7]); in data set [2] (setting [8])) were 23 to 32 days and 29 to 75 days, respectively. Further, the “treatment group still alive 12 months later” value with GL261 glioma (oral 30 mg/kg, s.i.d., p<0.0001) was “more than 60%”. In the data set with GL261 glioma (relative to control groups, five independent studies), the “growth rate of intracerebral GL261 glioma” value is “slows the growth rate”. The “treated mice with complete tumor regression without further progression” value in the data set with GL261 glioma (single dose per day (s.i.d.)) is reported as “up to 60%”. Further, the “phosphorylation level of known Src protein substrates” value in data set [1] and in data set [3] was “reduce the phosphorylation level of known Src protein substrates in a dose-dependent fashion” each time. Also, in data set [2] (SCID mice surviving greater than 45 days), the “tumor outcome after drug was discontinued (observed by MRI)” value is reported as “all proceeded to develop lethal GL261 gliomas”. Further, the “expression and localization of intracellular survivin” value in the data set with survivin is “increased expression and altered the localization of intracellular survivin”. Besides, the “drug treated mice with complete tumor regression and no reoccurrence within normal full life span” value with aggressive brain tumors (setting [6]) is “up to 60%”. In addition, the “rate of tumor growth” value in the data set with aggressive brain tumors (setting [6]) is “very significantly slows the rate of tumor growth”. For the same molecule, in the data set with aggressive brain tumors (versus placebo or Temodar treated mice), the brain edema result was “much less brain edema”. For the same molecule, the “growth of brain tumor cells” value in data set [4] (human and mouse brain tumor cells derived from glioblastoma multiforme, astrocytoma and medulloblastoma) is on record as “potently inhibited the growth”. For the same molecule, the GI50 in data set [4] (various brain tumor cell lines, in all cases, read-out: GI50 (inhibition of proliferation)) was under 55 nM. Moreover, the Kp in data set [5] (brain (relative to plasma), mice, read-out: ratio of drug levels in the brain compared to plasma levels) was 0.76; in data set [5] (brain, administered to mice, read-out: brain penetration), 0.76.
